target: PI3K (p110α/p85α) (Homo sapiens (Human), UniProt P42336); assay: PI3K HTRF enzyme assay, p110α/p85α; assay type: biochemical; conditions: read-out: % inhibition @ 500 nM p110α; compound at 500 nM, 10 μM ATP
How it was run: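 Recombinant PI3K heterodimers with PIP2 substrate; reactions ran 30 min at room temperature with 10 μM ATP for p110α/p85α and 100 μM ATP for p110β/p85α. After stop, HTRF detection followed 17 h incubation in the dark at room temperature; HTRF ratio used as read-out.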

Chain of PI3K (p110α/p85α) (P42336 whole entry, species assumed): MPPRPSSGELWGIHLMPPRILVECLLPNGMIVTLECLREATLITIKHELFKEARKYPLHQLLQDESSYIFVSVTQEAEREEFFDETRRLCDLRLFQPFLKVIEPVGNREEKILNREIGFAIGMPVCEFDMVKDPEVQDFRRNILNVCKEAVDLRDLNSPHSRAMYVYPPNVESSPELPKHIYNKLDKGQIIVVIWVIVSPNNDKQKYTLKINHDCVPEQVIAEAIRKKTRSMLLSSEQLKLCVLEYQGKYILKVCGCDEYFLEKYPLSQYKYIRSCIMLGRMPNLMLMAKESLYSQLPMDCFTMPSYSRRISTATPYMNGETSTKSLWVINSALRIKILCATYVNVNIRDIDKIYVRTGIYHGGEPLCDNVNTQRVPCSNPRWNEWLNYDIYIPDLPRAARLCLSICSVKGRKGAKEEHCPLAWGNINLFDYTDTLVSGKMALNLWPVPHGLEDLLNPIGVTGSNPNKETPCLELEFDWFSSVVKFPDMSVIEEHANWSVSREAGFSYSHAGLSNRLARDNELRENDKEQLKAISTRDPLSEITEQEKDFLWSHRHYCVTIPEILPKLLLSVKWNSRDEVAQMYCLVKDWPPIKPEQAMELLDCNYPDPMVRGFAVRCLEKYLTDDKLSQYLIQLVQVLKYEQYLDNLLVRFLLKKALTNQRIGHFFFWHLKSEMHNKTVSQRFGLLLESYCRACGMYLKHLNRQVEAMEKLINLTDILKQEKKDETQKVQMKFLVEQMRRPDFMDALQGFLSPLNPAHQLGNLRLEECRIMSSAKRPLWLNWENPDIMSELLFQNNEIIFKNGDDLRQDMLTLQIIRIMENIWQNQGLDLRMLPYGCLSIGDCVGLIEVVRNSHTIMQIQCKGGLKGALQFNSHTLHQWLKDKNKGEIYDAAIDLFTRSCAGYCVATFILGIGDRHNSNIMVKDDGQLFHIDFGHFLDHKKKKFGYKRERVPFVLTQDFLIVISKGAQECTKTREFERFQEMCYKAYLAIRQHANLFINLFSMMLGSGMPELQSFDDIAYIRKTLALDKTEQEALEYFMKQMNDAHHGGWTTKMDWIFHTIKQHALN
Chain of PI3K (p110α/p85α) (P27986 whole entry partner, species assumed): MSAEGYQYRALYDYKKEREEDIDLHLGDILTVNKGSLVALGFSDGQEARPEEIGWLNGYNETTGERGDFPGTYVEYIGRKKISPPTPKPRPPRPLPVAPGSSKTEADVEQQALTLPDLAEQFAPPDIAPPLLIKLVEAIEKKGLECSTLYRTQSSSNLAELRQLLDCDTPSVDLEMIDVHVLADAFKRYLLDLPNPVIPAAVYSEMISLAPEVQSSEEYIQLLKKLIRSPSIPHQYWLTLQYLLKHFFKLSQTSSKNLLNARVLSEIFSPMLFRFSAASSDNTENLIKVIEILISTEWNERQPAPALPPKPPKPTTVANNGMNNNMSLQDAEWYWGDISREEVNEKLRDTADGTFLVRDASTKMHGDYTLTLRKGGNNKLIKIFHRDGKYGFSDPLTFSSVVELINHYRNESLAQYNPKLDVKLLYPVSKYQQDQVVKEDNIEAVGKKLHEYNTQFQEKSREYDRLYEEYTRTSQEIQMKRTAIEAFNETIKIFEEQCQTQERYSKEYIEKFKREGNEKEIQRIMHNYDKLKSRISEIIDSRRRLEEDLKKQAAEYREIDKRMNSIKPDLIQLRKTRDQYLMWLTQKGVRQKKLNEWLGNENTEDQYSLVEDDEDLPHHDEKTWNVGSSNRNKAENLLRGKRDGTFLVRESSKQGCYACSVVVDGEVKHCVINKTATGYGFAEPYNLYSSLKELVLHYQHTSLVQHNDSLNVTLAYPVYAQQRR

inhibition at 0.5 µM [%]	SMILES
83.1	CSc1c(Cl)nc(-c2ccc(NC(=O)Nc3ccc(S(C)(=O)=O)cc3)cc2)nc1N1CCOCC1 [MTR-0387, 1-[4-(4-Chloro-5-methylsulfanyl-6-morpholin-4-yl-pyrimidin-2-yl)-phenyl]-3-(4-methanesulfonyl-phenyl)-urea]
51.7	CSc1c(-c2ccncc2)nc(-c2ccc(NC(=O)Nc3ccc(N4CCOCC4=O)cc3)cc2)nc1N1CCOCC1 [MTR-0391, 1-[4-(5-Methylsulfanyl-4-morpholin-4-yl-6-pyridin-4-yl-pyrimidin-2-yl)-phenyl]-3-[4-(3-oxo-morpholin-4-yl)-phenyl]-urea]
46.6	CSc1c(-c2ccncc2)nc(-c2ccc(NC(=O)Nc3ccc(C(N)=O)cc3)cc2)nc1N1CCOCC1 [MTR-0392, 4-{3-[4-(5-Methylsulfanyl-4-morpholin-4-yl-6-pyridin-4-yl-pyrimidin-2-yl)-phenyl]-ureido}-benzamide]
70.5	CCOc1cnc(-c2ccc(NC(=O)Nc3ccc(NS(C)(=O)=O)cc3)cc2)nc1N1CCOCC1 [MTR-0394, N-(4-{3-[4-(5-Ethoxy-4-morpholin-4-yl-pyrimidin-2-yl)-phenyl]-ureido}-phenyl)-methanesulfonamide]
41.7	C[S+]([O-])c1cnc(-c2ccc(NC(=O)Nc3ccc(N4CCOCC4=O)cc3)cc2)nc1N1CCOCC1 (stereo not shown) [MTR-0401, 1-[4-(5-Methanesulfinyl-4-morpholin-4-yl-pyrimidin-2-yl)-phenyl]-3-[4-(3-oxo-morpholin-4-yl)-phenyl]-urea]
66.9	CSc1cnc(-c2ccc(NC(=O)Nc3ccc(S(C)(=O)=O)cc3)cc2)nc1N1CCOCC1 [MTR-0404, 1-(4-Methanesulfonyl-phenyl)-3-[4-(5-methylsulfanyl-4-morpholin-4-yl-pyrimidin-2-yl)-phenyl]-urea]
52.5	COc1cnc(-c2ccc(NC(=O)Nc3ccc(N4CCOCC4=O)cc3)c(F)c2)nc1N1CCOCC1 [MTR-0405, 1-[2-Fluoro-4-(5-methoxy-4-morpholin-4-yl-pyrimidin-2-yl)-phenyl]-3-[4-(3-oxo-morpholin-4-yl)-phenyl]-urea]
78.4	COc1cnc(-c2ccc(NC(=O)Nc3ccc(N4CCOCC4=O)cc3)cc2F)nc1N1CCOCC1 [MTR-0406, 1-[3-Fluoro-4-(5-methoxy-4-morpholin-4-yl-pyrimidin-2-yl)-phenyl]-3-[4-(3-oxo-morpholin-4-yl)-phenyl]-urea]
63.4	COc1cnc(-c2ccc(NC(=O)Nc3ccc(C(N)=O)cc3)cc2F)nc1N1CCOCC1 [MTR-0407, 4-{3-[3-Fluoro-4-(5-methoxy-4-morpholin-4-yl-pyrimidin-2-yl)-phenyl]-ureido}-benzamide]
82.7	CSc1c(Cl)nc(-c2ccc(NC(=O)Nc3ccc(S(N)(=O)=O)cc3)cc2F)nc1N1CCOCC1 [MTR-0412, 4-{3-[4-(4-Chloro-5-methylsulfanyl-6-morpholin-4-yl-pyrimidin-2-yl)-3-fluoro-phenyl]-ureido}-benzenesulfonamide]
58.6	CCOc1cnc(-c2ccc(NC(=O)Nc3ccc(N4CCN(S(C)(=O)=O)CC4)cc3)cc2)nc1N1CCOCC1 [MTR-0420, 1-[4-(5-Ethoxy-4-morpholin-4-yl-pyrimidin-2-yl)-phenyl]-3-[4-(4-methanesulfonyl-piperazin-1-yl)-phenyl]-urea]
98.7	CCOc1cnc(-c2ccc(NC(=O)Nc3ccc(C(=O)N4CCOCC4)cc3)cc2)nc1N1CCOCC1 [MTR-0421, 1-[4-(5-Ethoxy-4-morpholin-4-yl-pyrimidin-2-yl)-phenyl]-3-[4-(morpholine-4-carbonyl)-phenyl]-urea]
71.5	CCOc1cnc(-c2ccc(NC(=O)Nc3ccc(S(C)(=O)=O)cc3)cc2)nc1N1CCOCC1 [MTR-0424, 1-[4-(5-Ethoxy-4-morpholin-4-yl-pyrimidin-2-yl)-phenyl]-3-(4-methanesulfonyl-phenyl)-urea]
